Results published in article PMC2709817 (Biochemistry, 2009).
Like-named read-outs stand apart in the source and are kept apart here.

Tests used:
Format in all cases: biochemical
[1] = target: T1, UDP-3-O-(R-3-hydroxyacyl)-N-acetylglucosamine deacetylase LpxC (Escherichia coli, UniProt P0A725); assay: percent inhibition of purified LpxC at […]; conditions: read-out: 1-68Aa
T1 sequence (P0A725 1-305): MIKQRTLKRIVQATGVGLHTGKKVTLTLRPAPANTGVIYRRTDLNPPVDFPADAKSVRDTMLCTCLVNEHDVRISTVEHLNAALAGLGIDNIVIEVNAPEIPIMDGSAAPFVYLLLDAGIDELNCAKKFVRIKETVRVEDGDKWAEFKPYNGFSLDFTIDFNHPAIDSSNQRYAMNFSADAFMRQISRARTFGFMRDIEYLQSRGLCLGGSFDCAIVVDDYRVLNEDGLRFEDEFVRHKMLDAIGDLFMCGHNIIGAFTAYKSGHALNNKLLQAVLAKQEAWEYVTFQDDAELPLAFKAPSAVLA

LpxC [2] = target: T2, LpxC (Rhizobium johnstonii, UniProt Q1ME43); assay: percent inhibition of purified LpxC ortholog at […]; conditions: read-out: 1-68Aa
T2 sequence (Q1ME43 1-318): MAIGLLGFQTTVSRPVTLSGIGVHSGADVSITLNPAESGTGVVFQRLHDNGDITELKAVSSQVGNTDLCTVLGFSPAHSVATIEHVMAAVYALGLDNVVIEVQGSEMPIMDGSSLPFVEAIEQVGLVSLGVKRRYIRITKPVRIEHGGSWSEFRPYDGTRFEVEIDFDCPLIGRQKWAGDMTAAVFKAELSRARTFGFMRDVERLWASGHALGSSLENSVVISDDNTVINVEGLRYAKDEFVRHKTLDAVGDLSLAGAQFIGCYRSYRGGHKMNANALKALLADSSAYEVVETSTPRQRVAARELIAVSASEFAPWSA

LpxC [3] = target: T3, LpxC (Helicobacter pylori, UniProt O25692); assay: percent inhibition of purified LpxC ortholog at […]; conditions: read-out: 1-68Aa
T3 sequence (O25692 1-295): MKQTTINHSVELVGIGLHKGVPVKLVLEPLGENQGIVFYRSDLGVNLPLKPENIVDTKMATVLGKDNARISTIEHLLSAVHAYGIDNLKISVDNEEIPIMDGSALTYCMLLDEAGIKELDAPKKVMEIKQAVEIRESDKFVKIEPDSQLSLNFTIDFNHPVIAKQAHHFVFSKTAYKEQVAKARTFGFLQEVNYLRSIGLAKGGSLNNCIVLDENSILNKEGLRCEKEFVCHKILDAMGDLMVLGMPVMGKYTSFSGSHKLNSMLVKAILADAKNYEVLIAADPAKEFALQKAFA

LpxC [4] = target: T3, LpxC; assay: percent inhibition of purified LpxC ortholog at […]; conditions: read-out: 1-68A

inhibition at 50 µM [1] | inhibition at 50 µM (LpxC [2]) | inhibition at 50 µM (LpxC [3]) | inhibition at 50 µM (LpxC [4]) | SMILES
60% | 49% | 41% |  | O=c1ccn([C@@H]2O[C@H](CON=Cc3ccc(O)c(O)c3)[C@@H](O)[C@H]2O)c(=O)[nH]1 [1-68Aa, 3,4-Dihydroxy-benzaldehyde O-[5-(2,4-dioxo-3,4-dihydro-2H-pyrimidin-1-yl)-3,4-dihydroxy-tetrahydro-furan-2-ylmethyl]-oxime]
 |  |  | 21% | O=c1ccn([C@@H]2O[C@H](CON=Cc3ccc(O)c(O)c3O)[C@@H](O)[C@H]2O)c(=O)[nH]1 [1-68A]
